Reference: patent publication US20060281720A1, “5-Androstenediol As An Inhibitor of Gliomas” (priority 2005, published 2006)

Assays:
rat F98 glioma cells [1] = experiment: Morphology of rat F98 glioma cells viewed in situ by microscope; format: cell-based; conditions: Example 3, FIG. 3, 24 hours; for morphological changes compared to vehicle treated cells: 20× magnification
Procedure: Cells were cultured as described in example 1 for 24 hours. Cells were cultured with […] of αAED, βAED, βAET, and vehicle. After culture, the cells were viewed in situ under 20× magnification using a reverse image microscope.

[2] = test system: human promyelocytic HL60 cells; conditions: Huynh and Loria, J Leukoc Biol 1997; cited from earlier work
human T98 glioma cells = experiment: Proliferation of human T98 glioma cells by 3H-TdR incorporation; format: cell-based; conditions: 3 days; for cell growth / proliferation (3H-TdR incorporation): compared to controls; for dose dependency of antiproliferative effect / proliferation: Example 2, FIG. 2; for dose dependency of antiproliferative effect: 500, 50, 5.0 and 0.5 μm; for proliferation: at 500 μm
Procedure: (§1) αAED, βAED, αAET, and βAET, are commercially available.
(§2) The F98 cells are weakly immunogenic. […] The T9 cell line is tumorgenic and immunogenic.
(§3) During the growth phase, the media was not changed.
(§4) Rat F98 glioma cells and […] glioma cells were grown and cultured as in example 1 above. The cells were cultured in the presence of αAED or βAED in titrated concentrations of 500 μm, 50 μm, 5.0 μm, and 0.5 μm. After 3 days, glioma cell proliferation was measured as described above.
(§5) The cells were cultured in the presence of αAED, βAED, αAET, βAET, or vehicle in titrated concentrations of 400 μm, 200 μm, 100 μm, and 50 μm.

rat F98 glioma cells [3] = experiment: Proliferation of rat F98 glioma cells by 3H-TdR incorporation; format: cell-based; conditions: 3 days; for cell growth / proliferation (3H-TdR incorporation): compared to controls; for dose dependency of antiproliferative effect / proliferation: Example 2, FIG. 2; for dose dependency of antiproliferative effect: 500, 50, 5.0 and 0.5 μm; for proliferation: at 500 μm
Procedure: as §1, §2, §3, §4, §5

murine P388D1 = conditions: Huynh and Loria, J Leukoc Biol 1997; cited from earlier work
human U87 glioma cells = conditions: Example 1, FIG. 1; 500 μm, 3 days, compared to controls
Procedure: (§6) αAED, βAED, αAET, and βAET, are commercially available. Unless otherwise indicated, all steroids were dissolved in DMSO:ETHOL (1:1 v/v). Stock solutions were refrigerated and brought to room temperature before use. For testing, stock solutions were diluted in media immediately before use.
(§7) The rat F98 cell line was obtained from the American Type Culture Collection (ATCC No. CRL-2397). These cells are tumorgenic and have biological characteristics that closely resemble those of human glioblastoma. The F98 cells are weakly immunogenic. […] The T9 cell line is tumorgenic and immunogenic. The human U-87 cell line was obtained from American Type Culture Collection (ATCC No. HTB-14). These cells are tumorgenic and are derived from malignant gliomas. The human T98 cell line was obtained from the American Type Culture Collection (ATCC No. CRL-1690). These cells are derived from the brain of a subject diagnosed with glioblastoma multiforme.
(§8) Cells were grown in Complete Media (CM) consisting of Dulbecco's Modified Eagle Medium. Cells were initially seeded at a density of 1×10^4 cells per 0.2 ml in 96 well plates and grown at 37° C. During the growth phase, the media was not changed. Proliferation was measured by tritium uptake (as a measure of DNA synthesis). One microcurie (1 μC) was added to the cells and incubated overnight. The 96 well plate was then refrigerated and counted in a topcount cell plate harvester.
(§9) Rat F98 and T9 glioma cells and […] and U87 glioma cells were cultured in 96 well plates at a density of approximately 1×10^4 cells per well. Cells were treated with 500 μm of αAED or βAED or vehicle and cultured for 3 days. The cultures were pulsed with 3H-TdR for the last 15 hours.

rat T9 glioma cells = conditions: Example 1, FIG. 1; 500 μm, 3 days, compared to controls
Procedure: as §6, §7, §8, §9

Raw 264.7 = conditions: Huynh and Loria, J Leukoc Biol 1997; cited from earlier work
[4] = Example 4, FIG. 4, 400, 200, 100 and 50 μM
[5] = Example 5, FIG. 5, 400, 200, 100 and 50 μM

Row | Compound | morphology of apoptosis (cell shrinkage, rounding, vacuolization, partial detachment, lobulated appearance) (rat F98 glioma cells [1]) | morphological changes compared to vehicle treated cells (rat F98 glioma cells [1]) | proliferation and apoptosis [2] | cell growth / proliferation (3H-TdR incorporation) (human T98 glioma cells; Example 1, FIG. 1, 500 μm) | dose dependency of antiproliferative effect (human T98 glioma cells) | proliferation (human T98 glioma cells) | cell growth / proliferation (3H-TdR incorporation) (human T98 glioma cells; [4]) | cell growth / proliferation (3H-TdR incorporation) (rat F98 glioma cells [3]; Example 1, FIG. 1, 500 μm) | dose dependency of antiproliferative effect (rat F98 glioma cells [3]) | proliferation (rat F98 glioma cells [3]) | cell growth / proliferation (3H-TdR incorporation) (rat F98 glioma cells [3]; [5]) | proliferation and apoptosis (murine P388D1) | cell growth / proliferation (3H-TdR incorporation) (human U87 glioma cells) | cell growth / proliferation (3H-TdR incorporation) (rat T9 glioma cells) | proliferation and apoptosis (Raw 264.7)
1 | 5-androstene-3β-17α-diol [αAED] | display morphology of apoptasis | most drastic morphological changes | inhibits the proliferation and induces apoptosis | inhibited cell growth | dose dependent | inhibited the proliferation | significantly inhibited cell growth | inhibited cell growth | dose dependent | inhibited the proliferation | significantly inhibited cell growth | inhibits the proliferation and induces apoptosis | inhibited cell growth | inhibited cell growth | inhibits the proliferation and induces apoptosis
2 | 5-androstene-3β-17β-diol [βAED] | display morphology of apoptasis | significant morphological changes | – | inhibited cell growth | dose dependent | inhibited the proliferation | inhibited cell growth | inhibited cell growth | dose dependent | inhibited the proliferation | inhibited cell growth | – | inhibited cell growth | inhibited cell growth | –
3 | C[C@]12CC[C@H]3[C@@H]([C@@H](O)C=C4C[C@@H](O)CC[C@@]43C)[C@@H]1CC[C@@H]2O [βAET, 5-androstene-3β-7β-17β-triol] | display morphology of apoptasis | significant morphological changes | – | – | – | – | displayed significant effects on the proliferation | – | – | – | displayed significant effects on the proliferation | – | – | – | –
4 | C[C@]12CC[C@H]3[C@@H]([C@H](O)C=C4C[C@@H](O)CC[C@@]43C)[C@@H]1CC[C@@H]2O [αAET, 5-androstene-3β-7α-17β-triol] | – | – | – | – | – | – | displayed significant effects on the proliferation | – | – | – | displayed significant effects on the proliferation | – | – | – | –
